The record followed here is the METLIN SMRT retention time set (Domingo-Almenara et al. 2019).

The data set can be described thus: gradient 5% acetonitrile 3 min, to 50% in 2 min, to 85% in 15 min, held 3 min, 100 µL/min. The conditions noted are these: column: Zorbax Extend-C18 2.1 x 50 mm; eluents: water / acetonitrile, 0.1% formic acid. A digest of the protocol: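 The mobile phases were water and acetonitrile, each with 0.1% formic acid, pumped at 100 μL/min through a Zorbax Extend-C18 column (2.1 × 50 mm, 1.8 μm). Pure standards were injected as mixtures of ~100 molecules and detected by a quadrupole time-of-flight mass spectrometer in positive and negative ionization mode. Retention time came from computationally picked adduct peaks, each inspected by hand.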
`CC(C)NC(=O)C1CCCN(c2nccn3nc(-c4ccccc4Cl)cc23)C1` (centres undefined) had an RP-LC retention time of 806 s. `CCCn1ncc(N2CCC(C(=O)NCCc3cccs3)CC2)cc1=O` returned an RP-LC retention time of 714 s.

Consider `O=C(NCc1ccc2c(c1)OCO2)C1CCCN(C(=O)c2cc(-c3cccnc3)n[nH]2)C1` (centres undefined), for which the RP-LC retention time amounted to 584 s. The result for `O=C(NCc1ccc2c(c1)OCO2)C1Cn2cccc2C(=O)N1Cc1ccccc1` (centres undefined) reads 805 s. Then `CCC(NC(=O)c1cn2ccc(C)cc2n1)c1ccc(OC)cc1` (centres undefined), with 707 s; and `Cc1ccc(CNC(=O)c2c(C)sc3ccn(CC(C)C)c(=O)c23)o1`, with 683 s; and `Nc1nc(N2CCN(c3ccccc3F)CC2)ncc1C(=O)Nc1ccccc1`, with 821 s. Turning to `Cc1ncoc1C(=O)N1CCC(c2noc(-c3ccccc3)n2)C1` (centres undefined), the RP-LC retention time was found to be 763 s. `Cc1ccc(C)c(NC(=O)CN(C)S(=O)(=O)c2cc(C(=O)N3CCC(C)CC3)n(C)c2)c1` had an RP-LC retention time of 924 s.

Consider `COc1ccccc1N1CCN(c2ncnc3c2CCC3)CC1`, for which the RP-LC retention time is 645 s. Then `COc1ccc(S(=O)(=O)C(CNC(=O)c2cccc([N+](=O)[O-])c2C)c2ccco2)cc1` (centres undefined), with 664 s; and `COc1ccc(Cl)cc1C(=O)Nc1ccc2c(c1)N(C)C(=O)C(C)(C)CO2`, with 955 s. The compound `Cc1c(C(=O)NC2CCCCC2)sc2ncn(CC(=O)N3CC(C)CC(C)C3)c(=O)c12` (centres undefined) yielded an RP-LC retention time of 965 s.

In the case of `CCc1ccc(C(=O)N2CCN(c3nc(CN4CCCCCC4)cs3)CC2)cc1`, the RP-LC retention time was 708 s. Take `O=C(Nc1nc(-c2ccc(F)cc2)cs1)c1cccc(Br)c1`: the RP-LC retention time was 1120 s. On to `COc1ccc(OC)c(CCN2CC(=O)N(c3ccc(C)c(Cl)c3)[C@@H]3CS(=O)(=O)C[C@@H]32)c1`, for which the RP-LC retention time is 921 s. The result for `Cc1ccc2c(c1)N(C(=O)Cn1ncn3c(C)c(C(=O)NCc4ccccc4)c(C)c3c1=O)CCO2` reads 886 s; that for `CS(=O)(=O)N1CCCc2cc(C(=O)NCCC3=CCCCC3)ccc21`, 935 s; that for `COc1ccccc1C(=O)NC1CCN(c2cc(-c3cccs3)[nH]n2)C1` (centres undefined), 717 s. The result for `COc1ccc(Cl)cc1NC(=O)CC1CCCCN1S(=O)(=O)c1ccc(F)cc1` (centres undefined) reads 1080 s; that for `Cc1ccc(C)c(S(=O)(=O)N2c3ccccc3CC2c2nc(C(C)C)no2)c1` (centres undefined), 1230 s.

`O=C1OC(Cc2ccccc2)C(c2ccccc2)C1=O` (centres undefined): the RP-LC retention time was determined as 976 s.

Compound `Cc1nn(-c2cc(N3CCCC3)ncn2)c(C)c1CCC(=O)Nc1ccc(F)cc1Cl` yielded an RP-LC retention time of 791 s. The result for `COc1ccccc1CCC(=O)N1CCC[C@@H]1C(=O)NCCc1csc(-c2ccccc2)n1` reads 891 s; that for `COc1ccc(-c2cn3c(n2)N(C(=O)Cn2ccnc2)CCC3)cc1`, 593 s. The result for `COc1ccc(-c2noc(CN3N=NC4C(=O)N(c5ccc(OC)c(OC)c5)C(=O)C43)n2)cc1OC` (centres undefined) reads 798 s. Then `Cc1ccc(CNC(=O)C2(C)CCN(S(=O)(=O)c3cc(C)cc(C)c3)CC2)cc1`, with 1030 s; and `CN1CCN(C(=O)C2CCN(c3nc4ccc(-c5ccccc5)nc4s3)CC2)CC1`, with 672 s. The compound `COCCCNC(=O)C1CCC(=O)N(c2ccc3c(c2)OCO3)C1c1ccc(OC)cc1` (centres undefined) had an RP-LC retention time of 644 s.

The compound `COC[C@@H]1CN(Cc2c(C)noc2C)C[C@H]1c1ccccn1` registered an RP-LC retention time of 580 s. In turn, `COc1ccc(CN2C=C(C(=O)OCc3noc(-c4ccco4)n3)C(C)=NS2(=O)=O)cc1` had an RP-LC retention time of 1000 s. In turn, `CC(=O)NCC(=O)N1CCCn2cc(-c3ccccc3)nc21` returned an RP-LC retention time of 570 s. The result for `CCc1cccc(NS(=O)(=O)c2ccc3c(c2)CCCC(=O)N3)c1` reads 780 s; that for `O=C(Cn1ncc2c(c1=O)N(CC1CC1)C(=O)CS2)NCc1ccccc1Cl`, 789 s; that for `CC(=O)c1ccc(NC(=O)Cn2nc3c4cc(-c5ccccc5)nn4ccn3c2=O)cc1`, 818 s.

For the compound `CCCN(CC1CCOC1)S(=O)(=O)c1cc(Cl)ccc1OC` (centres undefined), the RP-LC retention time stood at 939 s. As for `Cn1c(=O)c2cc(C(=O)N3CCN(C(=O)c4ccco4)CC3)sc2n(C)c1=O`, the RP-LC retention time is 574 s. The result for `Cc1ccc(CNC(=O)C2(C)CCN(C(=O)Nc3cc(Cl)ccc3C)CC2)cc1` reads 936 s; that for `O=C(NC1CCCCCC1)C1CCCN(c2ccnc(-c3ccc(F)cc3)n2)C1` (centres undefined), 730 s; that for `CCc1noc2nc(CCC(=O)NCc3ccco3)nc(N3CCCCC3)c12`, 829 s. Then `Cc1cccc(Oc2cc(N3CCC(C(=O)NCCC4=CCCCC4)CC3)ncn2)c1C`, with 1110 s; and `Cc1noc(-c2ccc(OC3CN(S(=O)(=O)c4cccc5nsnc45)C3)cc2)n1`, with 932 s. The result for `Cc1oc(C2CCN(S(=O)(=O)c3ccc(C(F)(F)F)cc3)CC2)nc1C(=O)N(C)C` reads 900 s; that for `CC(C)n1c(N2CCN(C(=O)C3CC(=O)N(CCc4ccccc4)C3)CC2)cc(=O)n(C(C)C)c1=O` (centres undefined), 786 s. The compound `COc1ccc2nc(NC(=O)C3CCN(C(=O)c4ccc(-c5noc(C)n5)cc4)CC3)sc2c1` yielded an RP-LC retention time of 803 s. Then `CCCCNC(=O)c1nnn2c1COC(c1ccc(F)cc1)C2` (centres undefined), with 929 s; and `CCCCn1cc(S(=O)(=O)Nc2ccc(Cl)cc2)c2cccnc21`, with 1020 s. For `Cc1ccc(F)c(-n2cc(C(=O)O)nn2)c1`, the RP-LC retention time came out at 684 s. Then `CCn1cnc(S(=O)(=O)N2CCC(C(=O)N3CCC(C)CC3)CC2)c1`, with 678 s.

`O=C(CSc1nnc2c3sc(N4CCCC4)nc3ncn12)Nc1ccc2c(c1)OCO2`: the RP-LC retention time worked out at 766 s. The result for `COc1ccccc1NC(=O)N1c2ccccc2NC2=C(C(=O)CCC2)C1c1ccco1` (centres undefined) reads 830 s; that for `COc1ccc(Cn2nnc3cc(C(=O)NCC4CCCO4)ccc32)cc1` (centres undefined), 733 s; that for `CCOc1ccc(-c2[nH]ncc2CN2C[C@@H]3CCN(S(C)(=O)=O)C[C@]3(CF)C2)cc1`, 661 s.

Take `CCN(CC)C(=O)c1ccc(-c2nc3cc(NS(=O)(=O)c4cc(C)ccc4C)ccc3n2C)cc1`: the RP-LC retention time stood at 739 s. `CCc1ccc(NC(=O)c2c(C)oc3nc(C)nc(N4CCCC4)c23)cc1` gave an RP-LC retention time of 830 s.

`O=C(NCC1CC1)c1c(OCC2CC2)cc(=O)n2c1CCCCC2` showed an RP-LC retention time of 688 s. Then `O=C(N1CCCC(c2nnnn2-c2ccccc2)C1)C1(c2ccccc2)CC1` (centres undefined), with 839 s; and `Cc1nc(C)c(C(=O)N2CCC3(CC2)CCC(O)(CN(C)C)CC3)s1`, with 555 s; and `c1cc(-c2nc(-c3ccnc(N4CCCC4)c3)no2)ccn1`, with 594 s. As for `COC(=O)c1cc2c([nH]c1=O)CC(c1ccc(OC)cc1OC)CC2=O` (centres undefined), the RP-LC retention time was determined as 699 s. The result for `CCN1C(=O)COc2ccc(-c3csc(NC(C)=O)n3)cc21` reads 719 s.

The compound `O=C(Cc1cccnc1)N1CCC[C@H]1c1nc(-c2ccccc2)n[nH]1` returned an RP-LC retention time of 578 s. Consider `COc1ccc(NC(=O)COc2ccc(-c3nnc4n3CCCC4)cc2)c(OC)c1`, for which the RP-LC retention time was 684 s. In turn, `COc1ccc(F)cc1S(=O)(=O)N(C)CC1(C)CCOCC1` yielded an RP-LC retention time of 864 s. Then `Cn1ncc(Br)c1C(=O)N1CCCC1c1ccccc1F` (centres undefined), with 872 s. Turning to `Cc1ccc(-c2nc(Cn3cccc3C(=O)N3CCCC3)no2)cc1`, the RP-LC retention time was 972 s.

`COCCCNC(=O)C1CCN(C(=O)c2cc3oc(C)cc3n2Cc2c(F)cccc2Cl)CC1`: the RP-LC retention time is 826 s.

Compound `C=CCNC(=O)CN1C(=O)C2CCCCN2c2ccc(C(=O)N3CCCC3)cc21` (centres undefined) yielded an RP-LC retention time of 838 s. Compound `CCCNC(=O)c1ccc(S(N)(=O)=O)cc1` yielded an RP-LC retention time of 653 s. Then `O=C(CN1C(=O)CCC1=O)N1CCC(Oc2nc3ccc(F)cc3s2)CC1`, with 734 s. The result for `CCc1nc(N2CCCC2=O)sc1C(=O)Nc1ccc(OC)c(Cl)c1` reads 905 s; that for `O=C(NCc1ccc2c(c1)OCO2)C1CCN(C(=O)c2ccccc2)CC1`, 706 s. Then `CCOC(=O)N1CCC(c2nnc(-c3ccco3)s2)CC1`, with 728 s; and `CC(C)CN1CC(c2nc(-c3ccccc3)no2)C2(CCCC2)C1` (centres undefined), with 763 s; and `CCOC(=O)c1ccccc1NC(=O)Cn1c(=O)n(-c2ccc(C)cc2)c(=O)c2c1cc(C)n2C`, with 1060 s.

With `O=C(NCCc1cccs1)C1CCN(C(=O)c2ncn3c2COC(c2ccc(Cl)cc2)C3)CC1` (centres undefined), the RP-LC retention time was determined as 808 s.

`COc1ccc(NC(=O)N2CCC(n3c(-c4ccco4)nc4cccnc43)C2)cc1F` (centres undefined) gave an RP-LC retention time of 690 s.

For the compound `CC1(C)CC(=O)c2cn(-c3ccc(Cl)cc3)c(=O)c(C(=O)NCCN3CCOCC3)c2C1`, the RP-LC retention time was determined as 592 s. The result for `CCN(Cc1ccccc1)C(=O)c1noc2c1CCCC2` reads 1010 s.
